Columns and labels:
Type in all cases: in vivo
[1] = system: larva of Spodoptera litura; experiment: Test against larva of Spodoptera litura (leaf dip, sweet potato leaves); settings: 20 ppm concentration of the active component; third instar larvae; counted after 7 days; 25° C.
In short: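 Sweet potato leaves were dipped in emulsified compound diluted with water, air-dried, and given to 10 third-instar larvae per dish at 25° C, with fresh leaves added on days 2 and 4. Mortality was counted after 7 days and averaged over 2 dishes.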

[2] = system: Myzus persicae resistant to organophosphorous agents and carbamates; experiment: Test against Myzus persicae resistant to organophosphorous agents and carbamates (spray on eggplant seedlings); settings: 100 ppm concentration of the effective component; 7 days after spraying; green house of 28° C.
Method: About 30 bred Myzus persicae resistant to organophosphorous agents and carbamates were inoculated per 1 seedling of eggplant planted in a vinyl pot of 6 cm diameter. One day after the inoculation, a sufficient amount of a diluted aqueous solution of a prescribed concentration of an active compound prepared as mentioned above, was sprayed by using a spray gun. After spraying it was placed in a green house of 28° C. and the rate of death was calculated 7 days after the spraying. Test was repeated twice.

[3] = system: larva of Cnaphalocrocis medinalis Guenee; experiment: Test against larva of Cnaphalocrocis medinalis Guenee (sprayed paddy rice foliage); settings: 20 ppm concentration of the active component; second instar larvae; counted after 7 days; 25° C.
In short: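 Potted rice (Tamanishiki) sprayed with aqueous dilutions of compound at the prescribed concentration; air-dried leaf pieces placed in dishes with five 2nd-instar larvae at 25° C, fresh treated foliage added at days 2 and 4. Mortality counted at day 7, averaged over 2 dishes.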

Row | Compound | controlling effect, rate of death [1] | controlling effect, rate of death [2] | controlling effect, rate of death [3]
1 | CSCC(C)NC(=O)c1c(Cl)cccc1C(=O)Nc1ccc(Cn2nc(C(F)(F)F)nc2C(F)(F)F)cc1C (stereo not shown) [compound 140] | 100% | 100% | 100%
2 | CSCC(C)NC(=O)c1c(Cl)cccc1C(=O)Nc1ccc(Cn2nc(C(F)(F)F)nc2C(F)(F)F)cc1C (stereo not shown) [compound 141] | 100% | 100% | 100%
3 | Cc1cc(Cn2nc(C(F)(F)F)nc2C(F)(F)F)ccc1NC(=O)c1cccc(Cl)c1C(=O)NC(C)CS(C)(=O)=O (stereo not shown) [compound 144] | 100% | 100% | 100%
4 | CCSCC(C)NC(=O)c1c(Cl)cccc1C(=O)Nc1ccc(Cn2nc(C(F)(F)F)nc2C(F)(F)F)cc1C (stereo not shown) [compound 146] | 100% | 100% | 100%
5 | CC[S+]([O-])CC(C)NC(=O)c1c(Cl)cccc1C(=O)Nc1ccc(Cn2nc(C(F)(F)F)nc2C(F)(F)F)cc1C (stereo not shown) [compound 147] | 100% | 100% | 100%
6 | CCS(=O)(=O)CC(C)NC(=O)c1c(Cl)cccc1C(=O)Nc1ccc(Cn2nc(C(F)(F)F)nc2C(F)(F)F)cc1C (stereo not shown) [compound 148] | 100% | 100% | 100%
7 | CSCC(C)(C)NC(=O)c1c(Br)cccc1C(=O)Nc1ccc(Cn2nc(C(F)(F)F)nc2C(F)(F)F)cc1C [compound 174] | 100% | 100% | 100%
8 | Cc1cc(Cn2nc(C(F)(F)F)nc2C(F)(F)F)ccc1NC(=O)c1cccc(Br)c1C(=O)NC(C)(C)CS(C)(=O)=O [compound 176] | 100% | 100% | 100%
9 | CSCC(C)NC(=O)c1c(Br)cccc1C(=O)Nc1ccc(Cn2nc(C(F)(F)F)nc2C(F)(F)F)cc1C (stereo not shown) [compound 178] | – | 100% | –
10 | Cc1cc(Cn2nc(C(F)(F)F)nc2C(F)(F)F)ccc1NC(=O)c1cccc(Br)c1C(=O)NC(C)C[S+](C)[O-] (stereo not shown) [compound 180] | 100% | 100% | 100%
11 | Cc1cc(Cn2nc(C(F)(F)F)nc2C(F)(F)F)ccc1NC(=O)c1cccc(Br)c1C(=O)NC(C)CS(C)(=O)=O (stereo not shown) [compound 181] | 100% | 100% | 100%
12 | CSCC(C)(C)NC(=O)c1c(I)cccc1C(=O)Nc1ccc(Cn2nc(C(F)(F)F)nc2C(F)(F)F)cc1C [compound 211] | 100% | 100% | 100%
13 | CSCC(C)NC(=O)c1c(I)cccc1C(=O)Nc1ccc(Cn2nc(C(F)(F)F)nc2C(F)F)cc1C (stereo not shown) [compound 239] | – | 100% | –
14 | Cc1cc(Cn2nc(C(F)(F)F)nc2C(F)F)ccc1NC(=O)c1cccc(I)c1C(=O)NC(C)CS(C)(=O)=O (stereo not shown) [compound 243] | – | 100% | –
15 | Cc1cc(C(C)n2nc(C(F)(F)F)nc2C(F)(F)F)ccc1NC(=O)c1cccc(Cl)c1C(=O)N[C@@H](C)C[S+](C)[O-] (stereo partly shown) [compound 569] | – | 100% | –
16 | Cc1cc(Cn2cc(C(F)(F)C(F)(F)C(F)(F)C(F)(F)F)c(C(F)(F)F)n2)ccc1NC(=O)c1cccc(I)c1C(=O)N[C@@H](C)C[S+](C)[O-] (stereo partly shown) [compound 649] | 100% | – | 100%
17 | Cc1cc(Cn2cc(C(F)(F)C(F)(F)C(F)(F)C(F)(F)F)c(C(F)(F)F)n2)ccc1NC(=O)c1cccc(I)c1C(=O)N[C@@H](C)CS(C)(=O)=O [compound 650] | 100% | – | 100%
18 | Cc1cc(Cn2cc(C(F)(F)C(F)(F)F)c(C(F)(F)C(F)(F)F)n2)ccc1NC(=O)c1cccc(I)c1C(=O)N[C@@H](C)C[S+](C)[O-] (stereo partly shown) [compound 655] | 100% | – | 100%
19 | Cc1cc(Cn2cc(C(F)(F)C(F)(F)F)c(C(F)(F)C(F)(F)F)n2)ccc1NC(=O)c1cccc(I)c1C(=O)N[C@@H](C)CS(C)(=O)=O [compound 656] | 100% | – | 100%

Row | Compound | controlling effect, rate of death [1] | controlling effect, rate of death [2] | controlling effect, rate of death [3]
20 | CSC[C@H](C)NC(=O)c1c(Cl)cccc1C(=O)Nc1ccc(Cn2cc(C(F)(F)C(F)(F)C(F)(F)F)c(C(F)(F)C(F)(F)F)n2)cc1C [compound 657] | 100% | – | 100%
21 | Cc1cc(Cn2cc(C(F)(F)C(F)(F)C(F)(F)F)c(C(F)(F)C(F)(F)F)n2)ccc1NC(=O)c1cccc(Cl)c1C(=O)N[C@@H](C)C[S+](C)[O-] (stereo partly shown) [compound 658] | 100% | – | 100%
22 | Cc1cc(Cn2cc(C(F)(F)C(F)(F)C(F)(F)F)c(C(F)(F)C(F)(F)F)n2)ccc1NC(=O)c1cccc(Cl)c1C(=O)N[C@@H](C)CS(C)(=O)=O [compound 659] | 100% | – | 100%
23 | CSC[C@H](C)NC(=O)c1c(I)cccc1C(=O)Nc1ccc(Cn2cc(C(F)(F)C(F)(F)C(F)(F)F)c(C(F)(F)C(F)(F)F)n2)cc1C [compound 660] | 100% | – | 100%
24 | Cc1cc(Cn2cc(C(F)(F)C(F)(F)C(F)(F)F)c(C(F)(F)C(F)(F)F)n2)ccc1NC(=O)c1cccc(I)c1C(=O)N[C@@H](C)C[S+](C)[O-] (stereo partly shown) [compound 661] | 100% | – | 100%
25 | Cc1cc(Cn2cc(C(F)(F)C(F)(F)C(F)(F)F)c(C(F)(F)C(F)(F)F)n2)ccc1NC(=O)c1cccc(I)c1C(=O)N[C@@H](C)CS(C)(=O)=O [compound 662] | 100% | – | 100%
26 | CSC[C@H](C)NC(=O)c1c(Cl)cccc1C(=O)Nc1ccc(Cn2cc(C(F)(F)C(F)(F)C(F)(F)C(F)(F)F)c(C(F)(F)C(F)(F)F)n2)cc1C [compound 663] | 100% | – | 100%
27 | CSC[C@H](C)NC(=O)c1c(I)cccc1C(=O)Nc1ccc(Cn2cc(C(F)(F)C(F)(F)C(F)(F)C(F)(F)F)c(C(F)(F)C(F)(F)F)n2)cc1C [compound 664] | 100% | – | 100%
28 | CSC[C@H](C)NC(=O)c1c(Cl)cccc1C(=O)Nc1ccc(Cn2cc(C(F)(F)C(F)(F)F)c(C(F)(F)C(F)(F)C(F)(F)F)n2)cc1C [compound 665] | 100% | – | 100%
29 | CSC[C@H](C)NC(=O)c1c(I)cccc1C(=O)Nc1ccc(Cn2cc(C(F)(F)C(F)(F)F)c(C(F)(F)C(F)(F)C(F)(F)F)n2)cc1C [compound 666] | 100% | – | 100%
30 | CSC[C@H](C)NC(=O)c1c(Cl)cccc1C(=O)Nc1ccc(Cn2cc(C(F)(F)C(F)(F)C(F)(F)F)c(C(F)(F)C(F)(F)C(F)(F)F)n2)cc1C [compound 667] | 100% | – | 100%
31 | Cc1cc(Cn2cc(C(F)(F)C(F)(F)C(F)(F)F)c(C(F)(F)C(F)(F)C(F)(F)F)n2)ccc1NC(=O)c1cccc(Cl)c1C(=O)N[C@@H](C)C[S+](C)[O-] (stereo partly shown) [compound 668] | 100% | – | 100%
32 | Cc1cc(Cn2cc(C(F)(F)C(F)(F)C(F)(F)F)c(C(F)(F)C(F)(F)C(F)(F)F)n2)ccc1NC(=O)c1cccc(Cl)c1C(=O)N[C@@H](C)CS(C)(=O)=O [compound 669] | 100% | – | 100%
33 | CSC[C@H](C)NC(=O)c1c(I)cccc1C(=O)Nc1ccc(Cn2cc(C(F)(F)C(F)(F)C(F)(F)F)c(C(F)(F)C(F)(F)C(F)(F)F)n2)cc1C [compound 670] | 100% | – | 100%
34 | Cc1cc(Cn2cc(C(F)(F)C(F)(F)C(F)(F)F)c(C(F)(F)C(F)(F)C(F)(F)F)n2)ccc1NC(=O)c1cccc(I)c1C(=O)N[C@@H](C)C[S+](C)[O-] (stereo partly shown) [compound 671] | 100% | – | 100%
35 | Cc1cc(Cn2cc(C(F)(F)C(F)(F)C(F)(F)F)c(C(F)(F)C(F)(F)C(F)(F)F)n2)ccc1NC(=O)c1cccc(I)c1C(=O)N[C@@H](C)CS(C)(=O)=O [compound 672] | 100% | – | 100%
36 | CSC[C@H](C)NC(=O)c1c(Cl)cccc1C(=O)Nc1ccc(Cn2nc(C(F)(F)C(F)(F)F)nc2C(F)(F)C(F)(F)F)cc1C [compound 681] | 100% | – | 100%
37 | Cc1cc(Cn2nc(C(F)C(F)(F)F)nc2C(F)(F)F)ccc1NC(=O)c1cccc(Cl)c1C(=O)N[C@@H](C)C[S+](C)[O-] (stereo partly shown) [compound 797] | – | 100% | –
38 | CSC[C@H](C)NC(=O)c1c(Cl)cccc1C(=O)Nc1ccc(Cn2nc(SC(F)(F)C(F)(F)C(F)(F)F)nc2C(F)(F)F)cc1C [compound 804] | 100% | – | 100%

From patent US7674807B2, “Heterocycle-substituted n-phenyl-phthalamide derivatives, related compounds and their use as insecticides” (Bayer CropScience AG, priority 2004, dated 2010)
